These results are taken from US20040092584A1, “Substance or composition for the treatment of cancer” (priority 2000, published 2004).

The test system of assay [1] is HeLa. The assay can be described thus: Growth of cancer cell lines, MTT reactivity (HeLa). In kind it is cell-based, human. As to conditions: mean drug concentration causing 50% cell killing, 3-4 experiments, 72 to 96 h, read-out: IC 50 (μM) HeLa. How it is done:
(§1) The sensitivities of the two cancer cell lines HeLa, which is a sensitive human cervix epitheloid carcinoma cell line, and CoLo 320DM, which is an intrinsically multidrug resistant human colon adeno-carcinoma cell line, to 13 of the complexes of the invention was tested.

Assay [2] deals with CoLo 320DM. The assay can be described thus: Growth of cancer cell lines, MTT reactivity (CoLo 320DM). It counts as cell-based, human. The note with it: mean drug concentration causing 50% cell killing, 3-4 experiments, 72 to 96 h, multidrug resistant line, read-out: IC 50 (μM) CoLo 320DM. On the procedure:
as §1

Assay [3] deals with COR L23/CPR. The assay can be described thus: Growth of cancer cell lines, MTT reactivity (COR L23/CPR). It counts as cell-based, human. The note with it: mean drug concentration causing 50% cell killing, 3-4 experiments, 72 to 96 h, platinum resistant variant, read-out: IC 50 (μM) COR L23/CPR.
Experimental: (§2) In these experiments cancer cell lines were cultured in standard tissue culture medium supplemented with 10% fetal calf serum (FCS) at 37° C. In an atmosphere of 5% CO2 in 96 well round bottom microtitre plates. The cultures were treated with either ferrocene-containing β-diketones or their rhodium complexes at varying concentrations for 72 to 96 h, and the extent of cell growth was assayed by MTT [3-(4,5-dimethylthiazol-2yl)-2,5-diphenyl tetrazolium bromide] reactivity, which detects only viable cells.
For assay [4], the system named is COR L23. The experiment in a line: Growth of cancer cell lines, MTT reactivity (COR L23). It counts as cell-based, human. As to conditions: mean drug concentration causing 50% cell killing, 3-4 experiments, 72 to 96 h, read-out: IC 50 (μM) COR L23.
Experimental: as §2
Assay [5] relates to Chinese hamster ovary (CHO) cells. The experiment in a line: Survival of CHO cells after irradiation under hypoxic conditions. It counts as cell-based. The note with it: for Mean Inactivation Dose (Gy) / Dose Modifying Factor (DMF): hypoxic conditions; for Mean Inactivation Dose (Gy): 8 MV photon beam; for Dose Modifying Factor (DMF): ratio of mean inactivation doses; for Sensitivity of CHO cells to irradiation under hypoxic conditions (in words): submicromolar concentrations. On the procedure:
CHO cells were treated in glass test tubes with non-toxic concentrations (0.39 μM and 0.78 μM) of the two rhodium-ferrocene complexes [Rh(fctca)(cod)] and [Rh(fctfa)(cod)] and irradiated with an 8 MV photon beam in a modular incubator chamber with a 2 cm tissue equivalent wax buildup (8MVmax) under aerobic and hypoxic conditions.
Neither of the two rhodium complexes tested increased the sensitivity of CHO cells to irradiation in an aerobic environment (results not shown). However, both complexes increased the sensitivity of CHO cells under hypoxic conditions (FIGS. 4 and 5). A dose-modifying factor of 2.9 was obtained under hypoxic conditions for 0.78 μM [Rh(fctfa)(cod)] (Table 2) and 1.9 for 0.39 μM [Rh(fctca)(cod)] (Table 3). The dose-modifying factors were calculated as the ratio of mean inactivation doses [calculated from the respective inactivation parameters obtained from the linear quadratic fit of the cell growth fraction (S)]. Published dose modifying factors (DMFs) measured for cisplatin range from 1.2-2 (Chibber R, Stratford I J, O'Neill P, Sheldon P W, Ahmed I, Lee B. 1985. The interaction between radiation and complexes of cis-Pt (II) and Rh (II): Studied at the molecular level. Int J Radiat Biol 48:513-524; Van De Vaart,. P J M, Klaren, H M, Holland I, Begg A C. 1997. Oral platinum analogue JM216, a radiosensitizer in oxic murine cells. Int J Radiat Biol 72(6):675-683).

Assay [6] deals with PHA-stimulated human lymphocytes. The assay can be described thus: Proliferation of PHA-stimulated human lymphocytes, MTT reactivity. As to conditions: for IC50: read-out: IC 50 (μM) PHA-stimulated lymphocytes, mean drug concentration causing 50% cell killing, PHA 2.5 μg/ml, 72 h, MTT; for Tumor specificity: activity against tumor cells versus stimulated normal human lymphocytes: tumor cells versus PHA-stimulated lymphocytes (Table 1).
Experimental: In these experiments suspensions of purified human mononuclear leukocytes were cultured in RPMI medium supplemented with 10% fetal calf serum (FCS) at 37° C. in an atmosphere of 5% CO2 in 96 well round bottom microtitre plates. To some of the wells a mitogen (phytohaemagglutinin, PHA) was added at a concentration of 2.5 μg/ml. The cultures were treated with either ferrocene-containing β-diketones or their rhodium complexes at varying concentrations for 72 h, and the extent of cell growth was assayed by MTT reactivity.

The nature of assay [7]: Anticancer activity of synthesis intermediates. As to conditions: intermediates of the published synthesis route.
The conditions of assay [8]: published values; cited from earlier work.

In the case of `O=CCC(=O)[c-]1cccc1.[Fe+2].c1cc[cH-]c1` [Hfch, ferrocenoylacetaldehyde], the IC50 was 73.4 µM in assay [1] and 80.8 µM in assay [2].

Consider `O=C(CC(=O)C(Cl)(Cl)Cl)[c-]1cccc1.[Fe+2].c1cc[cH-]c1` [Hfctca, ferrocenoyltrichloroacetone], for which the IC50 was found to be 37.7 µM in assay [1]; 20.1 µM in assay [3]; 12.5 µM in assay [4]; 28.4 µM in assay [2]; 67.5 µM in assay [6]. For the same compound, in assay [5], the “Radiosensitisation, initial tests (in words)” value is “promising”.

`C1=C\CC/C=C\CC/1.CC(=O)/C=C(/C)O.[Rh]` [Rh(acac)(cod)]: the figures for the IC50 in assay [1] and in assay [2] were 97.3 µM and > 100 µM, respectively.

Take `C1=CCCC=CCC1.O=C(C=C([O-])c1ccccc1)[c-]1cccc1.[Fe+2].[Rh+].c1cc[cH-]c1` [Rh(bfcm)(cod), (η^4-1,5-cyclooctadiene)(1-ferrocenyl-3-phenyl-1,3-propanedionato-κ^2O,O′)rhodium(1)]: the IC50 in assay [1] is 28.3 µM; in assay [3], 22 µM; in assay [4] it was 22.5 µM; in assay [2] it was 87.1 µM; in assay [6] it was 97.2 µM.

Regarding `C1=CCCC=CCC1.CC([O-])=CC(=O)[c-]1cccc1.[Fe+2].[Rh+].c1cc[cH-]c1` [Rh(fca)(cod), (η^4-1,5-cyclooctadiene)(1-ferrocenyl-1,3-butanedionato-κ^2O,O′)rhodium(1)], the IC50 was 64.4 µM in assay [1] and 56.6 µM in assay [2].

For `C1=CCCC=CCC1.O=C(C=C([O-])C(Cl)(Cl)Cl)[c-]1cccc1.[Fe+2].[Rh+].c1cc[cH-]c1` [Rh(fctca)(cod), (η^4-1,5-cyclooctadiene)(1-ferrocenyl-4,4,4-trichloro-1,3-butanedionato-κ^2O,O′)rhodium(1)], the IC50 came to 7.9 µM in assay [1]; 2 µM in assay [3]; 1.3 µM in assay [4]; 3 µM in assay [2]; 4.7 µM in assay [6]. The “Mean Inactivation Dose (Gy)” value in assay [5] (0.39 μM complex) is 3.73 Gy; in assay [5] (0.78 μM complex) it was 4.46 Gy. The “Dose Modifying Factor (DMF)” value in assay [5] (0.39 μM complex) came out at 1.9; in assay [5] (0.78 μM complex) it was 1.6. The “Sensitivity of CHO cells to irradiation under hypoxic conditions (in words)” value in assay [5] is recorded as “compare favorably with cisplatin”.

As to `C1=CCCC=CCC1.O=C(C=C([O-])C(F)(F)F)[c-]1cccc1.[Fe+2].[Rh+].c1cc[cH-]c1` [Rh(fctfa)(cod), (η^4-1,5-cyclooctadiene)(1-ferrocenyl-4,4,4-trifluooro-1,3-butanedionato-κ^2O,O′)rhodium(1)], the IC50 in assay [1] was 12.5 µM; in assay [3] it was 5.8 µM; in assay [4], 8.5 µM; in assay [2] it was 13.4 µM; in assay [6] it was 41.6 µM. Moreover, the “Mean Inactivation Dose (Gy)” value in assay [5] (0.39 μM complex) is given as 2.41 Gy; in assay [5] (0.78 μM complex) it was 2.19 Gy. Moreover, the “Dose Modifying Factor (DMF)” value in assay [5] (0.39 μM complex) worked out at 2.6; in assay [5] (0.78 μM complex), 2.9. In addition, in assay [5], the “Sensitivity of CHO cells to irradiation under hypoxic conditions (in words)” value was “compare favorably with cisplatin”. Moreover, the “Tumor specificity: activity against tumor cells versus stimulated normal human lymphocytes” value in assay [6] is reported as 4-5 times.

Turning to `[Cl][Rh]([Cl])[Cl]` [RhCl3], the Significant anticancer activity entry in assay [7] is reported as “none”.

For the compound `C1=CCCC=CCC1.O=C(C=C[O-])[c-]1cccc1.[Rh+].[Ru+2].c1cc[cH-]c1` [[Rh(RcH)(cod)], (η^4-1,5-cyclooctadiene)(1-ruthenocenyl-1,3-propanedionato-κ^2O,O′)rhodium(1)], the IC50 stood at 52 µM in assay [1], 39.6 µM in assay [3], 34 µM in assay [4] and 68.8 µM in assay [2].

For `C1=CCCC=CCC1.O=C(C=C([O-])[c-]1cccc1)c1ccccc1.[Rh+].[Ru+2].c1cc[cH-]c1` [[Rh(brcm)(cod)], (η^4-1,5-cyclooctadiene)(1-ruthenocenyl-3-phenyl-1,3-propanedionato-κ^2O,O′)rhodium(1)], the IC50 in assay [1] worked out at 16.2 µM; in assay [3], 14.1 µM; in assay [4], 15.8 µM; in assay [2], 20.4 µM.

For `C1=CCCC=CCC1.O=C(C=C([O-])[c-]1cccc1)[c-]1cccc1.[Fe+2].[Rh+].[Ru+2].c1cc[cH-]c1.c1cc[cH-]c1` [[Rh(fcrcm)(cod)], (η^4-1,5-cyclooctadiene)(1-ferrocenyl-3-ruthenocenyl-1,3-propanedionato-κ^2O,O′)rhodium(1)], the IC50 in assay [1] is 17.1 µM; in assay [3], 20.1 µM; in assay [4], 10.1 µM; in assay [2], 29.2 µM.

For `C1=CCCC=CCC1.CC(=O)C=C([O-])[c-]1cccc1.[Rh+].[Ru+2].c1cc[cH-]c1` [[Rh(rca)(cod)], (η^4-1,5-cyclooctadiene)(1-ruthenocenyl-1,3-butanedionato-κ^2O,O′)rhodium(1)], the IC50 in assay [1] came to 4.86 µM; in assay [3] it was 2.74 µM; in assay [4] it was 0.18 µM; in assay [2], 3 µM.

With `C1=CCCC=CCC1.O=C(C=C([O-])C(F)(F)F)[c-]1cccc1.[Rh+].[Ru+2].c1cc[cH-]c1` [[Rh(rctfa)(cod)], (η^4-1,5-cyclooctadiene)(1-ruthenocenyl-4,4,4-trifluooro-1,3-butanedionato-κ^2O,O′)rhodium(1)], the IC50 amounted to 54.7 µM in assay [1], 48 µM in assay [3], 49.2 µM in assay [4] and 67.4 µM in assay [2].

Turning to `C1=C\CC/C=C\CC/1.C1=C\CC/C=C\CC/1.[Cl-].[Cl-].[Rh].[Rh]` [[RhCl(cod)]2], the Significant anticancer activity result in assay [7] is given as “none”.

For `N.N.[Cl][Pt][Cl]` [cisplatin], the “Published dose modifying factors (DMFs)” value in assay [8] is recorded as 1.2-2.

For the compound “(η^4-1,5-cyclooctadiene)(1,3-diferrocenyl-1,3-propanedionato-κ^2O,O′)rhodium(1) [Rh(dfcm)(cod)]”, the IC50 in assay [1] turned out to be 18.4 µM; in assay [3] it was 30.8 µM; in assay [4], 19.9 µM; in assay [2], 70.8 µM; in assay [6], 42.2 µM.

“(η^4-1,5-cyclooctadiene)(1-ferrocenyl-1,3-propanedionato-κ^2O,O′)rhodium(1) [Rh(FcH)(cod)]”: the IC50 in assay [1] was 62.4 µM; in assay [2], 35.4 µM.

In the case of acetyl ferrocene, the Significant anticancer activity result in assay [7] is recorded as “none”.

With benzoylferrocenoylmethane [Hbfcm], the IC50 in assay [1] was 54.2 µM; in assay [3], 80.4 µM; in assay [4], 66.8 µM; in assay [2], 85.1 µM; in assay [6], > 100 µM.

Regarding diferrocenoylmethane [Hdfcm], the IC50 was 54.4 µM in assay [1]; 74.4 µM in assay [3]; 75.4 µM in assay [4]; 64.3 µM in assay [2]; > 100 µM in assay [6].

ferrocenoylacetone [Hfca]: the values for the IC50 in assay [1] and in assay [2] were 66.6 µM and 57.1 µM, respectively.

On to ferrocenoyltrifluoroacetone [Hfctfa], for which the IC50 in assay [1] was found to be 6.8 µM; in assay [3], 6.3 µM; in assay [4] it was 4.5 µM; in assay [2], 7.3 µM; in assay [6], 83.1 µM. Further, the “Radiosensitisation, initial tests (in words)” value in assay [5] is “promising”. The “Tumor specificity: activity against tumor cells versus stimulated normal human lymphocytes” value in assay [6] is “eight”.
